From US11479559B2, “Urea-substituted aromatic ring-linked dioxinoquinoline compounds, preparation method and uses thereof” (BEIJING SCITECH-MQ PHARMACEUTICALS LIMITED, priority 2018, dated 2022)
Like-named read-outs stand apart in the source and are kept apart here.

Experiments:
VEGFR2 tyrosine kinase = VEGFR2 tyrosine kinase (Homo sapiens (Human), UniProt P35968); test: Assay of small molecular compounds for inhibiting the activity of VEGFR-2 kinase (LANCE TR-FRET)
Protocol: (§1) The assay is based on the LANCE TR-FRET technology of Perkin Elmer Inc., and the assay method is as follows:
(§2) 2.5 μL of the gradient-diluted compounds were taken with a transfer pipette to a 384-well plate.
Addition of enzyme: 5 μL of 2× VEGFR2 kinase solution (concentration was 0.5 nM) was taken with a transfer pipette to the corresponding reaction well of the 384-well plate, mixed well and pre-reacted at room temperature for 30 minutes.
2.5 μL 4× Ultra ULight™-JAK-1 (Tyr1023) Peptide (concentration was 200 nM)/ATP (concentration was 40 μMM) mixture was taken with a transfer pipette to the corresponding reaction well of the 384-well plate.
Negative control: 2.5 μL/well 4× substrate/ATP mixture and 7.5 μL 1× Kinase Assay Buffer were added to the wells of the 384-well plate.
(§3) The final concentration of DMSO in the reaction system was 4%.
(§4) The mixture was mixed well and then centrifuged and reacted at room temperature in dark for 60 min.
(§5) The 384-well plate was placed into the Envision plate reader and the signal was detected using the appropriate program.

RET tyrosine kinase = RET tyrosine kinase (Homo sapiens (Human), UniProt P07949); test: Assay of small molecular compounds for inhibiting the activity of RET kinase (LANCE TR-FRET)
Chain of RET tyrosine kinase (P07949 29-1114): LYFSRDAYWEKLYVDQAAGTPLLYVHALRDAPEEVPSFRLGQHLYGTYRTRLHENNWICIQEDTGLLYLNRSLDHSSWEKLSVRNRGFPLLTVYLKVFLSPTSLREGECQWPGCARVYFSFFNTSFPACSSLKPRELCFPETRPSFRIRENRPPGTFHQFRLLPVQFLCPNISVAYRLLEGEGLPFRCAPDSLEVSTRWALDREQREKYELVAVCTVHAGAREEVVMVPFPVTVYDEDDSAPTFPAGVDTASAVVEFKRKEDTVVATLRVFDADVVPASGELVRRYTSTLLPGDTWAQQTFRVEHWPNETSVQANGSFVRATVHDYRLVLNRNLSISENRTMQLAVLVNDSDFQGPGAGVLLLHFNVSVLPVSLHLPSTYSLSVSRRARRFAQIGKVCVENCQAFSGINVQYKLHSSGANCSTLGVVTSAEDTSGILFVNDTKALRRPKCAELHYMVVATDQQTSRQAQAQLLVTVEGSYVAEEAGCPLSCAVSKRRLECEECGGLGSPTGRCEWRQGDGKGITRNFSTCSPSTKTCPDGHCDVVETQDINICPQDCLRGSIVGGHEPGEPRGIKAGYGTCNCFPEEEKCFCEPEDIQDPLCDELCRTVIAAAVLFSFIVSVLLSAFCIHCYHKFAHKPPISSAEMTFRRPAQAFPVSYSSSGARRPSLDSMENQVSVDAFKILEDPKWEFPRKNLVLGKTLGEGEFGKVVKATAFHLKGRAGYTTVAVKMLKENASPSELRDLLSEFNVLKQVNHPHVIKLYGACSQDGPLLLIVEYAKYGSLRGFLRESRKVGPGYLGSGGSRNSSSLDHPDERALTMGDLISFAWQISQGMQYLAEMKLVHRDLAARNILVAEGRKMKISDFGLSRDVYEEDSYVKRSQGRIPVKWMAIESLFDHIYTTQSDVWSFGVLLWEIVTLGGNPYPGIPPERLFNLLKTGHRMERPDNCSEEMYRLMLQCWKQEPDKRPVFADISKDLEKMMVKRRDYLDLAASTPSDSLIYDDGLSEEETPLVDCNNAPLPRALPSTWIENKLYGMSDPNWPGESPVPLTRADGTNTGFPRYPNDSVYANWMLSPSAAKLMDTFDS
Protocol: as §1, §2
Addition of enzyme: 5 μL of 2× RET kinase solution (concentration was 0.8 nM) was taken with a transfer pipette to the corresponding reaction well of the 384-well plate, mixed well and pre-reacted at room temperature for 30 minutes.
2.5 μL 4× Ultra ULight™-JAK-1 (Tyr1023) Peptide (concentration was 200 nM)/ATP (concentration was 40 μM) mixture was taken with a transfer pipette to the corresponding reaction well of the 384-well plate.
as §3, §4, §5

Chain of VEGFR2 tyrosine kinase (P35968 20-1356): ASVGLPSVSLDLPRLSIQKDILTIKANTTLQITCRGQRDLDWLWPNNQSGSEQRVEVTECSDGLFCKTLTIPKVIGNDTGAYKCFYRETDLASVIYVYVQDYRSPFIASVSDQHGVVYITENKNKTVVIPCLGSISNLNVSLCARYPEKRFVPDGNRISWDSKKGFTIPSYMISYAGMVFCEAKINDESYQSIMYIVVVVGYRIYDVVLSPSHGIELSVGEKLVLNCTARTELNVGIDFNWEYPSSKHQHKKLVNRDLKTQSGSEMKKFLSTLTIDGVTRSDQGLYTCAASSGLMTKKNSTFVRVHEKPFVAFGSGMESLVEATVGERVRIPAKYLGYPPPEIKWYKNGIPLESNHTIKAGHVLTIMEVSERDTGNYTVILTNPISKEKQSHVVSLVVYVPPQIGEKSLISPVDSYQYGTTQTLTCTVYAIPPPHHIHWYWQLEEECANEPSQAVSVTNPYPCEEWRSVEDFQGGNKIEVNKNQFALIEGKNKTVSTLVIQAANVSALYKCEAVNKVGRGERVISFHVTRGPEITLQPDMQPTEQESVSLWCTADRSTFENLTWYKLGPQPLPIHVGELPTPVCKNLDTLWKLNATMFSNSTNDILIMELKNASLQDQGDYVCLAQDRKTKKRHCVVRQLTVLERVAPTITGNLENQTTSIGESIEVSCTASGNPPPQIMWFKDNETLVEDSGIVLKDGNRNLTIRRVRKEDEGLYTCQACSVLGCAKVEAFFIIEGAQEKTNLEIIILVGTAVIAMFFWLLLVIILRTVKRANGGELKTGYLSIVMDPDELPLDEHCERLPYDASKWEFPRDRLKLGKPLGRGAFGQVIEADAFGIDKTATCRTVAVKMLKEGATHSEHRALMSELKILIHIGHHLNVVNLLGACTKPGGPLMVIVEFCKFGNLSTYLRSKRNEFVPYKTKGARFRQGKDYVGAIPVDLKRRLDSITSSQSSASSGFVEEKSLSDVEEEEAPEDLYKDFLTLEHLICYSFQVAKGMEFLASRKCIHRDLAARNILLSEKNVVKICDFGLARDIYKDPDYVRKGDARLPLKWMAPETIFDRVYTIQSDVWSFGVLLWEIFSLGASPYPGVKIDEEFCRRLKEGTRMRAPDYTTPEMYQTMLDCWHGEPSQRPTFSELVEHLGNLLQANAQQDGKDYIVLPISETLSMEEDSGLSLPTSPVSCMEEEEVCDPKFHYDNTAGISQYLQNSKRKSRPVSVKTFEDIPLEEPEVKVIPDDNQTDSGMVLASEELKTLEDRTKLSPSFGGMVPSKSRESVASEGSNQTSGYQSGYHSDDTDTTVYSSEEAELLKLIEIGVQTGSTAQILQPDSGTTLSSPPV

IC50 (VEGFR2 tyrosine kinase; read-out: VEGFR-2 IC50) | IC50 (RET tyrosine kinase; read-out: RET IC50) | IC50 (VEGFR2 tyrosine kinase) | IC50 (RET tyrosine kinase) | SMILES
< 0.05 µM | < 0.05 µM | – | – | O=C(Nc1ccc(Oc2ccnc3cc(OCCCN4CCOCC4)c4c(c23)OCCO4)cc1Cl)NC1CCC1 [Example 74, 1-(2-chloro-4-((5-(3-morpholinopropoxy)-2,3-dihydro-[1,4]dioxino[2,3-f]quinolin-10-yl)oxy)phenyl)-3-cyclobutylurea]
< 0.05 µM | < 0.05 µM | – | – | CN1CCN(CCCOc2cc3nccc(Oc4ccc(NC(=O)Nc5ccc(Cl)c(C(F)(F)F)c5)cc4)c3c3c2OCCO3)CC1 [Example 21, 1-(4-chloro-3-(trifluoromethyl)phenyl)-3-(4-((5-(3-(4-methylpiperazin-1-yl)propoxy)-2,3-dihydro-[1,4]dioxino[2,3-f]quinolin-10-yl)oxy)phenyl)urea]
< 0.05 µM | < 0.05 µM | – | – | CC1(C)CCN(CCCOc2cc3nccc(Oc4ccc(NC(=O)NC5CC5)c(Cl)c4)c3c3c2OCCO3)CC1 [Example 59, 1-(2-chloro-4-((5-(3-(4,4-dimethylpiperidin-1-yl)propoxy)-2,3-dihydro-[1,4]dioxino[2,3-f]quinolin-10-yl)oxy)phenyl)-3-cyclopropylurea]
< 0.05 µM | < 0.05 µM | – | – | CNC(=O)Nc1ccc(Oc2ccnc3cc(OC)c4c(c23)OCCO4)cc1Cl [Example 79, 1-(2-chloro-4-((5-methoxy-2,3-dihydro-[1,4]dioxino[2,3-f]quinolin-10-yl)oxy)phenyl)-3-methylurea]
< 0.05 µM | < 0.05 µM | – | – | O=C(Nc1ccc(Oc2ccnc3cc(OCCO)c4c(c23)OCCO4)cc1Cl)NC1CC1 [Example 48, 1-(2-chloro-4-((5-(2-hydroxyethoxy)-2,3-dihydro-[1,4]dioxino[2,3-f]quinolin-10-yl)oxy)phenyl)-3-cyclopropylurea]
– | – | < 0.05 µM | < 0.05 µM | COc1cc2nccc(Oc3ccc(NC(=O)NC4CC4)c(F)c3)c2c2c1OCCO2 [Example 84, 1-cyclopropyl-3-(2-fluoro-4-((5-methoxy-2,3-dihydro-[1,4]dioxino[2,3-f]quinolin-10-yl)oxy)phenyl)urea]
– | – | < 0.05 µM | < 0.05 µM | CCCNC(=O)Nc1ccc(Oc2ccnc3cc(OCCCN4CCOCC4)c4c(c23)OCCO4)cc1Cl [Example 87, 1-(2-chloro-4-((5-(3-morpholinopropoxy)-2,3-dihydro-[1,4]dioxino[2,3-f]quinolin-10-yl)oxy)phenyl)-3-prop ylurea]
– | – | < 0.05 µM | < 0.05 µM | COc1cc2nccc(Oc3ccc(NC(=O)NC4CC4)c(Cl)c3)c2c2c1OCCO2 [Example 7, 1-(2-chloro-4-((5-methoxy-2,3-dihydro-[1,4]dioxino[2,3-f]quinolin-10-yl)oxy)phenyl)-3-cyclopropylurea]
– | < 0.05 µM | 0.05 to 0.5 µM | – | COCCN(C)CCCOc1cc2nccc(Oc3ccc(NC(=O)Nc4ccc(Cl)c(C(F)(F)F)c4)cc3)c2c2c1OCCO2 [Example 27, 1-(4-chloro-3-(trifluoromethyl)phenyl)-3-(4-((5-(3-((2-methoxyethyl)(methyl)amino)propoxy)-2,3-dihydro-[1,4]dioxino[2,3-f]quinolin-10-yl)oxy)phenyl)urea]
< 0.05 µM | < 0.05 µM | – | – | O=C(Nc1ccc(F)cc1)Nc1ccc(Oc2ccnc3cc(OCCCN4CCOCC4)c4c(c23)OCCO4)cc1 [Example 77, 1-(4-fluorophenyl)-3-(4-((5-(3-morpholinopropoxy)-2,3-dihydro-[1,4]dioxino[2,3-f]quinolin-10-yl)oxy)phenyl)urea]
< 0.05 µM | < 0.05 µM | – | – | COCCCOc1cc2nccc(Oc3ccc(NC(=O)NC4CC4)c(Cl)c3)c2c2c1OCCO2 [Example 51, 1-(2-chloro-4-((5-(3-methoxypropoxy)-2,3-dihydro-[1,4]dioxino[2,3-f]quinolin-10-yl)oxy)phenyl)-3-cyclopropylurea]
< 0.05 µM | < 0.05 µM | – | – | CN(C)CCCOc1cc2nccc(Oc3ccc(NC(=O)Nc4ccc(Cl)c(C(F)(F)F)c4)cc3)c2c2c1OCCO2 [Example 17, 1-(4-chloro-3-(trifluoromethyl)phenyl)-3-(4-((5-(3-(dimethylamino)propoxy)-2,3-dihydro-[1, 4]dioxino[2,3-f]quinolin-10-yl)oxy)phenyl)urea]
< 0.05 µM | < 0.05 µM | – | – | COCCN(C)CCCOc1cc2nccc(Oc3ccc(NC(=O)NC4CC4)c(Cl)c3)c2c2c1OCCO2 [Example 62, 1-(2-chloro-4-((5-(3-((2-methoxyethyl)(methyl)amino)propoxy)-2,3-dihydro-[1,4]dioxino[2,3-f]quinolin-10-yl)oxy)phenyl)-3-cyclopropylurea]
< 0.05 µM | < 0.05 µM | – | – | N#CCOc1cc2nccc(Oc3ccc(NC(=O)NC4CC4)c(Cl)c3)c2c2c1OCCO2 [Example 47, 1-(2-chloro-4-((5-(cyanomethoxy)-2,3-dihydro-[1,4]dioxino[2,3-f]quinolin-10-yl)oxy)phenyl)-3-cyclopropylurea]
< 0.05 µM | < 0.05 µM | – | – | O=C(Nc1ccc(Oc2ccnc3cc(OCCCN4CCCC4)c4c(c23)OCCO4)cc1Cl)NC1CC1 [Example 53, 1-(2-chloro-4-((5-(3-(pyrrolidin-1-yl)propoxy)-2,3-dihydro-[1,4]dioxino[2,3-f]quinolin-10-yl)oxy)phenyl)-3-cyclopropylurea]
< 0.05 µM | < 0.05 µM | – | – | COc1cc2nccc(Oc3ccc(NC(=O)Nc4cc(C(F)(F)F)ccc4C)cc3)c2c2c1OCCO2 [Example 95, 1-(4-((5-methoxy-2,3-dihydro-[1,4]dioxino[2,3-f]quinolin-10-yl)oxy)phenyl)-3-(2-methyl-5-(trifluoromethyl)phenyl)urea]
< 0.05 µM | < 0.05 µM | – | – | CCNC(=O)Nc1ccc(Oc2ccnc3cc(OC)c4c(c23)OCCO4)cc1Cl [Example 80, 1-(2-chloro-4-((5-methoxy-2,3-dihydro-[1,4]dioxino[2,3-f]quinolin-10-yl)oxy)phenyl)-3-ethylurea]
< 0.05 µM | < 0.05 µM | – | – | CC1(O)CCN(CCCOc2cc3nccc(Oc4ccc(NC(=O)NC5CC5)c(Cl)c4)c3c3c2OCCO3)CC1 [Example 60, 1-(2-chloro-4-((5-(3-(4-hydroxy-4-methylpiperidin-1-yl)propoxy)-2,3-dihydro-[1,4]dioxino[2,3-f]quinolin-10-yl)oxy)phenyl)-3-cyclopropylurea]
< 0.05 µM | < 0.05 µM | – | – | O=C(Nc1ccc(Oc2ccnc3cc(OCCCO)c4c(c23)OCCO4)cc1Cl)NC1CC1 [Example 50, 1-(2-chloro-4-((5-(3-hydroxypropoxy)-2,3-dihydro-[1,4]dioxino[2,3-f]quinolin-10-yl)oxy)phenyl)-3-cyclopropylurea]
– | – | < 0.05 µM | < 0.05 µM | CNC(=O)Nc1ccc(Oc2ccnc3cc(OCCCN4CCOCC4)c4c(c23)OCCO4)cc1Cl [Example 85, 1-(2-chloro-4-((5-(3-morpholinopropoxy)-2,3-dihydro-[1,4]dioxino[2,3-f]quinolin-10-yl)oxy)phenyl)-3-methylurea]
< 0.05 µM | < 0.05 µM | – | – | O=C(Nc1ccc(Oc2ccnc3cc(OCCCN4CCS(=O)(=O)CC4)c4c(c23)OCCO4)cc1Cl)NC1CC1 [Example 58, 1-(2-chloro-4-((5-(3-(1,1-dioxothiomorpholino)propoxy)-2,3-dihydro-[1,4]dioxino[2,3-f]quinolin-10-yl)oxy)phenyl)-3-cyclopropylurea]
< 0.05 µM | < 0.05 µM | – | – | CN(C)CCCCCCOc1cc2nccc(Oc3ccc(NC(=O)NC4CC4)c(Cl)c3)c2c2c1OCCO2 [Example 64, 1-(2-chloro-4-((5-((6-(dimethylamino)hexyl)oxy)-2,3-dihydro-[1,4]dioxino[2,3-f]quinolin-10-yl)oxy)phenyl)-3-cyclopropylurea]
< 0.05 µM | < 0.05 µM | – | – | CN(C)CCCOc1cc2nccc(Oc3ccc(NC(=O)NC4CC4)c(Cl)c3)c2c2c1OCCO2 [Example 52, 1-(2-chloro-4-((5-(3-(dimethylamino)propoxy)-2,3-dihydro-[1,4]dioxino[2,3-f]quinolin-10-yl)oxy)phenyl)-3-cyclopropylurea]
– | < 0.05 µM | 0.05 to 0.5 µM | – | CN(C)CCCCCCOc1cc2nccc(Oc3ccc(NC(=O)Nc4ccc(Cl)c(C(F)(F)F)c4)cc3)c2c2c1OCCO2 [Example 30, 1-(4-chloro-3-(trifluoromethyl)phenyl)-3-(4-((5-((6-(dimethylamino)hexyl)oxy)-2,3-dihydro-[1,4]dioxino[2,3-f]quinolin-10-yl)oxy)phenyl)urea]
– | < 0.05 µM | 0.05 to 0.5 µM | – | N#CCCCOc1cc2nccc(Oc3ccc(NC(=O)Nc4ccc(Cl)c(C(F)(F)F)c4)cc3)c2c2c1OCCO2 [Example 94, 1-(4-chloro-3-(trifluoromethyl)phenyl)-3-(4-((5-(3-cyanopropoxy)-2,3-dihydro-[1,4]dioxino[2,3-f]quinolin-10-yl)oxy)phenyl)urea]
< 0.05 µM | – | – | – | O=C(Nc1ccc(Oc2ccnc3cc(OCCCN4CCCCC4)c4c(c23)OCCO4)cc1)Nc1ccc(Cl)c(C(F)(F)F)c1 [Example 19, 1-(4-chloro-3-(trifluoromethyl)phenyl)-3-(4-((5-(3-(piperidin-1-yl)propoxy)-2,3-dihydro-[1,4]dioxino[2,3-f]quinolin-10-yl)oxy)phenyl)urea]
– | < 0.05 µM | – | – | O=C(Nc1ccc(Oc2ccnc3cc(OC4COC4)c4c(c23)OCCO4)cc1Cl)NC1CC1 [Example 65, 1-(2-chloro-4-((5-(oxetan-3-yloxy)-2,3-dihydro-[1,4]dioxino[2,3-f]quinolin-10-yl)oxy)phenyl)-3-cyclopropylurea]

SMILES | IC50 (VEGFR2 tyrosine kinase; read-out: VEGFR-2 IC50) | IC50 (RET tyrosine kinase; read-out: RET IC50) | IC50 (VEGFR2 tyrosine kinase) | IC50 (RET tyrosine kinase)
COc1cc2nccc(Oc3ccc(NC(=O)Nc4ccc(Cl)c(C(F)(F)F)c4)cc3)c2c2c1OCCO2 [Example 1, 1-(4-chloro-3-(trifluoromethyl)phenyl)-3-(4-((5-methoxy-2,3-dihydro-[1,4]dioxino[2,3-f]quinolin-10-yl)oxy)phenyl)urea] | < 0.05 µM | < 0.05 µM | – | –
CC(C)COc1cc2nccc(Oc3ccc(NC(=O)NC4CC4)c(Cl)c3)c2c2c1OCCO2 [Example 45, 1-(2-chloro-4-((5-isobutoxy-2,3-dihydro-[1,4]dioxino[2,3-f]quinolin-10-yl)oxy)phenyl)-3-cyclopropylurea] | – | < 0.05 µM | – | –
